Results as given in the supplement of paper PMC8612539.
Converted amounts (≈) assume the structure as drawn.

Key:
Mannheimia haemolytica = assay: minimum inhibitory concentration (MIC)
Protocol: (§1)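 Broth microdilution MIC (Sensititre BOPO7F bovine plate, CLSI methods) of 19 antimicrobials against field isolates of P. multocida, M. haemolytica, H. somni (deep nasopharyngeal swabs) and E. coli, Enterococcus spp. (rectal swabs) from weaned dairy heifers. Incubation 16-24 h at 35 C. MIC is the lowest concentration preventing visible growth. Values with <= or > lie at the tested range limits. Trimethoprim-sulfamethoxazole is given as the trimethoprim component of a 1:19 mixture.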

Enterococcus spp. = assay: minimum inhibitory concentration (MIC)
Protocol: as §1

CO/N=C(\C(=O)N[C@@H]1C(=O)N2C(C(=O)O)=C(CSC(=O)c3ccco3)CS[C@H]12)c1csc(N)n1 [Ceftiofur]
minimum inhibitory concentration [µg/mL]
Settings	Enterococcus spp.	Mannheimia haemolytica
isolate (source animal id): 2	> 8	–
isolate (source animal id): 35	> 8	–
isolate (source animal id): 42	8 (≈ 15.3 µM)	–
isolate (source animal id): 44	2 (≈ 3.82 µM)	–
isolate (source animal id): 79	4 (≈ 7.64 µM)	–
isolate (source animal id): 88	0.5 (≈ 0.955 µM)	–
isolate (source animal id): 91	0.5 (≈ 0.955 µM)	–
isolate (source animal id): 92	> 8	–
isolate (source animal id): 111	0.5 (≈ 0.955 µM)	–
isolate (source animal id): 122	> 8	–
isolate (source animal id): 123	> 8	–
isolate (source animal id): 133	> 8	–
isolate (source animal id): 158	> 8	–
isolate (source animal id): 168	> 8	–
isolate (source animal id): 169	> 8	–
isolate (source animal id): 171	> 8	–
isolate (source animal id): 175	> 8	–
isolate (source animal id): 177	> 8	–
isolate (source animal id): 181	> 8	–
isolate (source animal id): 182	> 8	–
isolate (source animal id): 183	4 (≈ 7.64 µM)	–
isolate (source animal id): 187	> 8	–
isolate (source animal id): 190	> 8	–
isolate (source animal id): 194	> 8	–
isolate (source animal id): 195	> 8	–
isolate (source animal id): 197	4 (≈ 7.64 µM)	–
isolate (source animal id): 211	> 8	–
isolate (source animal id): 214	8 (≈ 15.3 µM)	–
isolate (source animal id): 222	> 8	–
isolate (source animal id): 223	> 8	–
isolate (source animal id): 228	> 8	–
isolate (source animal id): 230	> 8	–
isolate (source animal id): 235	> 8	–
isolate (source animal id): 236	> 8	–
isolate (source animal id): 239	2 (≈ 3.82 µM)	–
isolate (source animal id): 241	> 8	–
isolate (source animal id): 244	> 8	–
isolate (source animal id): 246	> 8	–
isolate (source animal id): 247	> 8	–
isolate (source animal id): 250	> 8	–
isolate (source animal id): 252	> 8	–
isolate (source animal id): 268	0.5 (≈ 0.955 µM)	–
isolate (source animal id): 282	> 8	–
isolate (source animal id): 285	> 8	–
isolate (source animal id): 288	–	≤ 0.25
isolate (source animal id): 289	8 (≈ 15.3 µM)	–
isolate (source animal id): 290	8 (≈ 15.3 µM)	–
isolate (source animal id): 291	–	≤ 0.25
isolate (source animal id): 293	–	≤ 0.25
isolate (source animal id): 296	> 8	–
isolate (source animal id): 298	≤ 0.25	≤ 0.25
isolate (source animal id): 299	–	≤ 0.25
isolate (source animal id): 300	–	≤ 0.25
isolate (source animal id): 301	8 (≈ 15.3 µM)	–
isolate (source animal id): 302	–	≤ 0.25
isolate (source animal id): 304	–	≤ 0.25
isolate (source animal id): 306	–	≤ 0.25
isolate (source animal id): 308	–	≤ 0.25
isolate (source animal id): 309	–	≤ 0.25
isolate (source animal id): 310	> 8	–
isolate (source animal id): 313	–	≤ 0.25
isolate (source animal id): 318	–	≤ 0.25
isolate (source animal id): 320	8 (≈ 15.3 µM)	≤ 0.25
isolate (source animal id): 321	–	≤ 0.25
isolate (source animal id): 323	–	≤ 0.25
isolate (source animal id): 324	–	≤ 0.25
isolate (source animal id): 326	–	≤ 0.25
isolate (source animal id): 328	–	≤ 0.25
isolate (source animal id): 329	–	≤ 0.25
isolate (source animal id): 331	2 (≈ 3.82 µM)	–
isolate (source animal id): 333	2 (≈ 3.82 µM)	≤ 0.25
isolate (source animal id): 335	–	≤ 0.25
isolate (source animal id): 338	–	≤ 0.25
isolate (source animal id): 341	2 (≈ 3.82 µM)	–
